Measurements as given in patent publication US11345956B2, “Methods and compositions related to prostate cancer therapeutics” (The Johns Hopkins University, priority 2014, dated 2022).
Where two headings read alike, the source gives them in different places.

Test system: metastatic castration-resistant prostate cancer (CRPC)
Details: for median overall survival (OS): preliminary survival analysis; for PSA response rate (≥50% PSA decline from baseline, maintained ≥4 weeks): all patients of the cohort; for HR for PFS, AR-V7 presence / HR for PSA-PFS, AR-V7 presence: multivariable Cox model adjusting for AR-FL expression and prior use of the alternative AR-directed agent; for HR for PFS, AR-FL levels / HR for PSA-PFS, AR-FL levels / HR for PFS, previous use of alternative AR-directed agent / HR for PSA-PFS, previous use of alternative AR-directed agent: multivariable Cox model; for HR for PFS, AR-FL levels / HR for PSA-PFS, AR-FL levels: covariate AR-FL level; for HR for PFS, previous use of alternative AR-directed agent / HR for PSA-PFS, previous use of alternative AR-directed agent: previous abiraterone (enzalutamide cohort) or previous enzalutamide (abiraterone cohort); for Hazard Ratio (HR) for PFS, variable AR-FL Level (log) / Hazard Ratio (HR) for PFS, variable AR-V7 Positive / Hazard Ratio (HR) for PFS, variable Prior use of Abiraterone / Hazard Ratio (HR) for PSA-PFS, variable AR-FL Level (log) / Hazard Ratio (HR) for PSA-PFS, variable AR-V7 Positive / Hazard Ratio (HR) for PSA-PFS, variable Prior use of Abiraterone: propensity score weighted multivariable model; for hazard ratio (HR) for OS, AR-V7-positive vs AR-V7-negative / hazard ratio (HR) for PFS, AR-V7-positive vs AR-V7-negative / hazard ratio (HR) for PSA-PFS, AR-V7-positive vs AR-V7-negative: univariate, log-rank
[1] = AR-V7-negative patients (baseline CTCs)
[2] = AR-V7-positive patients (baseline CTCs)
[3] = no previous alternative AR-directed agent (abiraterone/enzalutamide)
[4] = no previous alternative AR-directed agent (abiraterone/enzalutamide), AR-V7 [+]
[5] = no previous alternative AR-directed agent (abiraterone/enzalutamide), AR-V7 [−]
[6] = previous alternative AR-directed agent (abiraterone/enzalutamide), AR-V7 [+]
[7] = previous alternative AR-directed agent (abiraterone/enzalutamide), AR-V7 [−]
[8] = previous alternative AR-directed agent (abiraterone/enzalutamide)

Description: Men with metastatic CRPC who were beginning standard-of-care treatment with enzalutamide or abiraterone were prospectively enrolled. Patients were required to have histologically-confirmed prostate adenocarcinoma, progressive disease despite “castration levels” of serum testosterone (<50 ng/dL; and androgen-deprivation therapy had to continue), and radiographic metastases on computed tomography (CT) or technetium-99 bone scans. […] Patients were excluded if they planned to receive additional concurrent anticancer therapies. Prior chemotherapy was permitted, as was previous treatment with the alternative AR-directed agent (i.e. prior abiraterone use in enzalutamide-treated patients, and vice versa).
This was a prospective study evaluating the ability of baseline (pretreatment) AR-V7 status from CTCs (circulating tumor cells) to predict response or resistance to AR-directed agents.
Follow-up was prospectively defined: patients had PSA measurements every 1-2 months, as well as CT (chest/abdomen/pelvis) and technetium-99 bone scans every 2-4 months.
CTC analyses were conducted using the commercially-available ALERE™ CTC AdnaTest platform (AdnaGen, Langenhagen, Germany). Isolation and enrichment of CTCs was performed using the ProstateCancerSelect kit, and mRNA expression analyses were performed using the ProstateCancerDetect kit with multiplexed reverse-transcription polymerase-chain-reaction (qRT-PCR) primers to detect the presence of CTCs, and custom primers designed to detect the full-length-AR (AR-FL) and AR splice variant-7 (AR-V7) (Hu, R., et al. (2009) Cancer Res 69, 16-22). Relative AR-V7 transcript abundance was determined by calculating the ratio of AR-V7 to AR-FL (Hu, R., et al. (2009) Cancer Res 69, 16-22; Watson, P. A., et al. (2010) Proceedings of the National Academy of Sciences).
Best PSA response (maximal percentage PSA decrease from baseline) for each patient was also determined.
Secondary endpoints included freedom-from-PSA-progression (PSA-progression-free-survival; PSA-PFS), freedom-from-clinical/radiographic-progression (progression-free-survival; PFS), and overall survival (OS). PSA-progression was defined as a ≥25% increase in PSA from nadir (and by ≥2 ng/mL), requiring confirmation ≥4 weeks later (PCWG2 criteria) (Scher, H. I., et al. (2008) Journal of Clinical Oncology: Oficial Journal of the American Society of Clinical Oncology 26, 1148-1159).

SMILES | median PSA-progression-free survival (PSA-PFS) (AR-V7-negative patients) [months] | median clinical/radiographic progression-free survival (PFS) (AR-V7-negative patients) [months] | PSA response rate (≥50% PSA decline from baseline) [1] [%] | median overall survival (OS) (AR-V7-negative patients) | median PSA-progression-free survival (PSA-PFS) (AR-V7-positive patients) [months] | median clinical/radiographic progression-free survival (PFS) (AR-V7-positive patients) [months] | PSA response rate (≥50% PSA decline from baseline) [2] [%] | median overall survival (OS) (AR-V7-positive patients) [months] | PSA response rate (≥50% PSA decline from baseline, maintained ≥4 weeks) [%] | HR for PFS, AR-V7 presence | HR for PSA-PFS, AR-V7 presence | HR for PFS, AR-FL levels | HR for PSA-PFS, AR-FL levels | HR for PFS, previous use of alternative AR-directed agent | HR for PSA-PFS, previous use of alternative AR-directed agent | PSA Response [4] [%] | PSA Response [5] [%] | PSA Response [6] [%] | PSA Response [7] [%] | Hazard Ratio (HR) for PFS, variable AR-FL Level (log) | other results
C[C@]12CC[C@H](O)CC1=CC[C@@H]1[C@@H]2CC[C@]2(C)C(c3cccnc3)=CC[C@@H]12 [abiraterone] | > 5.3 | > 6.3 | 68.0 | > 11.9 months | 1.3 | 2.3 | 0 | 10.6 | 54.8 | 7.6 | 15.7 | 1.1 | 1.0 | 1.9 | 0.9 | 0 | 74 | 0 | 0 | 1.36 | PFA-PFS HR, AR-V7 [+] vs [−] [3]: HR 41.0; PFS HR, AR-V7 [+] vs [−] [3]: HR 28.2; Hazard Ratio (HR) for PFS, variable AR-V7 Positive: 5.25; Hazard Ratio (HR) for PFS, variable Prior use of Abiraterone: 1.72; Hazard Ratio (HR) for PSA-PFS, variable AR-FL Level (log): 1.05; Hazard Ratio (HR) for PSA-PFS, variable AR-V7 Positive: 17.51; Hazard Ratio (HR) for PSA-PFS, variable Prior use of Abiraterone: 0.61; hazard ratio (HR) for OS, AR-V7-positive vs AR-V7-negative: 12.7; hazard ratio (HR) for PFS, AR-V7-positive vs AR-V7-negative: 16.5; hazard ratio (HR) for PSA-PFS, AR-V7-positive vs AR-V7-negative: 16.1
CNC(=O)c1ccc(N2C(=S)N(c3ccc(C#N)c(C(F)(F)F)c3)C(=O)C2(C)C)cc1F [enzalutamide] | 6.0 | 6.1 | 52.6 | not reached | 1.4 | 2.1 | 0 | 5.5 | 32.3 | 3.0 | 3.1 | 1.7 | 1.4 | 2.6 | 2.5 | 0 | 80 | 0 | 22 | 1.64 | PFA-PFS HR, AR-V7 [+] vs [−] [8]: HR 3.34; PFS HR, AR-V7 [+] vs [−] [8]: HR 2.93; Hazard Ratio (HR) for PFS, variable AR-V7 Positive: 3.38; Hazard Ratio (HR) for PFS, variable Prior use of Abiraterone: 1.54; Hazard Ratio (HR) for PSA-PFS, variable AR-FL Level (log): 1.33; Hazard Ratio (HR) for PSA-PFS, variable AR-V7 Positive: 3.40; Hazard Ratio (HR) for PSA-PFS, variable Prior use of Abiraterone: 2.66; hazard ratio (HR) for OS, AR-V7-positive vs AR-V7-negative: 6.9; hazard ratio (HR) for PFS, AR-V7-positive vs AR-V7-negative: 8.5; hazard ratio (HR) for PSA-PFS, AR-V7-positive vs AR-V7-negative: 7.4
